Experiments:
[1] = molecular target: Serine/threonine-protein kinase MARK2 (Homo sapiens) (UniProt Q7KZI7); test: Selectivity interaction (Kinase screening (Nanosyn)) EUB0000604a MARK2
[2] = molecular target: Dual specificity protein kinase CLK1 (Homo sapiens, UniProt P49759); test: Selectivity interaction (KinomeScan (DiscoverX)) EUB0001049a CLK1; conditions: at 1 µM
[3] = molecular target: Cyclin-dependent kinase-like 3 (Homo sapiens) (UniProt Q8IVW4); test: Selectivity interaction (KinomeScan (DiscoverX)) EUB0001049a CDKL3; conditions: at 1 µM
Sequence of Cyclin-dependent kinase-like 3 (Homo sapiens) (Q8IVW4 whole entry, looked up): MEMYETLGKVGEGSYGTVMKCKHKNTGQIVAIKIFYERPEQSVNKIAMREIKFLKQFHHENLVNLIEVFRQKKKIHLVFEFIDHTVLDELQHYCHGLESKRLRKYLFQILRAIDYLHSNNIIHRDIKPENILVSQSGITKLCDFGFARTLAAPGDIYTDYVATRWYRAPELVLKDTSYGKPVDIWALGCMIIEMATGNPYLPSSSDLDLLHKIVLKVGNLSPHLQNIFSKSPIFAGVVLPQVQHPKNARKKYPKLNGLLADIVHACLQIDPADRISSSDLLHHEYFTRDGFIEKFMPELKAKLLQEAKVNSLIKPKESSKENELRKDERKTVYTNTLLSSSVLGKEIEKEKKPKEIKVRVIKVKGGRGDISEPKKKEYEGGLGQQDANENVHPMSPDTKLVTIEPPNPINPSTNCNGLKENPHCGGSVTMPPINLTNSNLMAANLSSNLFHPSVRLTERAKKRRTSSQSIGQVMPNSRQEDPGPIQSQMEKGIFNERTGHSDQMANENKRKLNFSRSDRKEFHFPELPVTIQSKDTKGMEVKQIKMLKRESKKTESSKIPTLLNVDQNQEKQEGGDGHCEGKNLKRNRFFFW

[4] = test system: eIF-2-alpha kinase GCN2 (Homo sapiens), Q9P2K8 [S808G]; test: Selectivity interaction (Ambit KINOMEscan and KiNATiv profiling in Jurkat cells) EUB0000090b EIF2AK4; format: cell-based; conditions: at 1 µM
[5] = molecular target: T1, Serine/threonine-protein kinase Sgk1 (Homo sapiens) (UniProt O00141); test: Selectivity interaction (Ambit KINOMEscan and KiNATiv profiling in Jurkat cells) EUB0000090b SGK1; format: cell-based; conditions: at 1 µM
T1 sequence (whole entry): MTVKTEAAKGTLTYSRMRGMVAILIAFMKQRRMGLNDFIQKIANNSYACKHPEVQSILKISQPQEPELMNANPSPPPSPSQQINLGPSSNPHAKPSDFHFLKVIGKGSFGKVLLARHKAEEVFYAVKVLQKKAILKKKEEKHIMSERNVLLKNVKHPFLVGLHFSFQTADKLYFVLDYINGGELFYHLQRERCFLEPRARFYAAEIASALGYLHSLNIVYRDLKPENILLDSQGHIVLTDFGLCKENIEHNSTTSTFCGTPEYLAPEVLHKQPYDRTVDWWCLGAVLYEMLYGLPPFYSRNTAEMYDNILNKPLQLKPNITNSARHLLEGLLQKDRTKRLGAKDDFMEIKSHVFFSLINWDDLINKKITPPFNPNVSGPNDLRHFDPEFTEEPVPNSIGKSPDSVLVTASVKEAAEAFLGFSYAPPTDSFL

[6] = molecular target: Tyrosine-protein kinase HCK (Homo sapiens) (UniProt P08631); test: Selectivity interaction (ActivX KiNativ screen (kinase selectivity in THP-1 cell lysates)) EUB0000639a HCK; format: subcellular; conditions: lysate, at 0.2 µM
Sequence of Tyrosine-protein kinase HCK (Homo sapiens) (P08631 2-526 limits assumed): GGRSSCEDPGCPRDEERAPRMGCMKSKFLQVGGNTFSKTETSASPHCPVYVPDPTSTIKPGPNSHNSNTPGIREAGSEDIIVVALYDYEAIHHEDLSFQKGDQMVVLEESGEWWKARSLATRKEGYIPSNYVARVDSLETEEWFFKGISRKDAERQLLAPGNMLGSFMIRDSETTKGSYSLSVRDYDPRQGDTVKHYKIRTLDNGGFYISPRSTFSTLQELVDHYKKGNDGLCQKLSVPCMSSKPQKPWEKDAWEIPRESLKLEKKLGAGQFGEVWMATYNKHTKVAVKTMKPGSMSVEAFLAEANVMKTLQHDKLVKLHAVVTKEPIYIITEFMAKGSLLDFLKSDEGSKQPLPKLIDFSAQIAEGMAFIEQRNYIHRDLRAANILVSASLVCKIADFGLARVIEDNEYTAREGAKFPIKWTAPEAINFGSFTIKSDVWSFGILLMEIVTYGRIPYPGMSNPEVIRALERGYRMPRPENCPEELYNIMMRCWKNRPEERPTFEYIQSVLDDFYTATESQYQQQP

[7] = molecular target: T2, Ankyrin repeat and protein kinase domain-containing protein 1 (Homo sapiens) (UniProt Q8NFD2); conditions: at 10 µM
T2 sequence (whole entry): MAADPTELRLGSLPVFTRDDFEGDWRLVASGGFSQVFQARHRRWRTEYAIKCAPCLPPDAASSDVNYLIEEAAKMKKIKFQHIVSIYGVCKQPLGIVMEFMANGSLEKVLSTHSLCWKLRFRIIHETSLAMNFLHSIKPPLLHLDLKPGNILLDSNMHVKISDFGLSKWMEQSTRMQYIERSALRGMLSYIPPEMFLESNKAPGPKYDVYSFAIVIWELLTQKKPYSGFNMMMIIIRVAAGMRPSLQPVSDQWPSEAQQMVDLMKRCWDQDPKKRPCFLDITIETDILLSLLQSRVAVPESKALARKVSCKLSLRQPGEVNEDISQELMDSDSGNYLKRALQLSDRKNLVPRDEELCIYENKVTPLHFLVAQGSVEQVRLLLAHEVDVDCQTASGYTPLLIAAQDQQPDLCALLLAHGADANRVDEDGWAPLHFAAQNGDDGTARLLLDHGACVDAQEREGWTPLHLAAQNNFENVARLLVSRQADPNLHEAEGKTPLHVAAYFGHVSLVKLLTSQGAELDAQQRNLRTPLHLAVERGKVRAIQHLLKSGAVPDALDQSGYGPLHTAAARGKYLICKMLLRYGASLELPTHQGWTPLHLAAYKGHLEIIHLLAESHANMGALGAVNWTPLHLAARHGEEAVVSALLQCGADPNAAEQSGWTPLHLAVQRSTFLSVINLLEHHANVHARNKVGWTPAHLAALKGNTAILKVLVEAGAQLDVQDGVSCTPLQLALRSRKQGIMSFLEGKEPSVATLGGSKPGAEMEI

[8] = molecular target: Non-receptor tyrosine-protein kinase TYK2 (Homo sapiens, UniProt P29597); test: Selectivity interaction (KinomeScan (DiscoverX)) EUB0000229b TYK2; conditions: at 10 µM
Sequence of Non-receptor tyrosine-protein kinase TYK2 (P29597 whole entry): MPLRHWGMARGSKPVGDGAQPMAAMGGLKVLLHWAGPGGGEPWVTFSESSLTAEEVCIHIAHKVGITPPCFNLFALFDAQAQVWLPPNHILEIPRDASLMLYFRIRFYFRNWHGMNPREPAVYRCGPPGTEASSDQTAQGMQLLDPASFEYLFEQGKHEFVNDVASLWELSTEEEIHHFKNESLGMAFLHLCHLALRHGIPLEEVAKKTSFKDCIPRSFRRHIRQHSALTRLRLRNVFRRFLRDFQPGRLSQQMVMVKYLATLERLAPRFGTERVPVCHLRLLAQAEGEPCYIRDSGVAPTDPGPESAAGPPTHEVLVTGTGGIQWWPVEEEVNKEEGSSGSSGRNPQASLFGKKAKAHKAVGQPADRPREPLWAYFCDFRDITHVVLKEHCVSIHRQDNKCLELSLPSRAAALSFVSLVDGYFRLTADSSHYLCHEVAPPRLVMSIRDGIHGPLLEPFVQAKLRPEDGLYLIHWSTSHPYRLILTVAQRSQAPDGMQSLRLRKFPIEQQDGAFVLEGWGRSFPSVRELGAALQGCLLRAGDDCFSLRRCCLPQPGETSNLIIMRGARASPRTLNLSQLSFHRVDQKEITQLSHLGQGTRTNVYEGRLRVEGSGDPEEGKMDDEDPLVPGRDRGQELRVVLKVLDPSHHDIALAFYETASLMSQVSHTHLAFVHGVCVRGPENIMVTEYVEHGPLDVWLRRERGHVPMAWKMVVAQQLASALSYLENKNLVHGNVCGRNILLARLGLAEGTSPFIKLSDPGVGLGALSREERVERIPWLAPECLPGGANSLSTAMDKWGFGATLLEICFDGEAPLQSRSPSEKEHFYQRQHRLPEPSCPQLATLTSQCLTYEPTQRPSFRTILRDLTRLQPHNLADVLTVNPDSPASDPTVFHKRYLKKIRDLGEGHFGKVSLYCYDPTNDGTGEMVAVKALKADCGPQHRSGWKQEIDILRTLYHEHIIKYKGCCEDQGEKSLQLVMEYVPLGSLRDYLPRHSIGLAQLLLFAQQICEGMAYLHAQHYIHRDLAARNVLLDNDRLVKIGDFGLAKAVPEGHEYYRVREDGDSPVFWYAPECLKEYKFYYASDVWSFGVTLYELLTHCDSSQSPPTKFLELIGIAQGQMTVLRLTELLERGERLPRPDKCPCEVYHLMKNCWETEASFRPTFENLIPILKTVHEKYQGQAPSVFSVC

[9] = molecular target: Tyrosine-protein kinase Lck (Homo sapiens, UniProt P06239); test: Selectivity interaction (KinomeScan (DiscoverX)) EUB0001079a LCK; conditions: at 1 µM
[10] = molecular target: Mitogen-activated protein kinase 9 (Homo sapiens, UniProt P45984); test: Selectivity interaction (KinomeScan (DiscoverX)) EUB0001079a MAPK9; conditions: at 1 µM
[11] = molecular target: T3, Serine/threonine-protein kinase Chk1 (Homo sapiens) (UniProt O14757); test: Selectivity interaction (Upstate Kinase Profiler service (Millipore)) EUB0000056c CHEK1; conditions: at 1 µM
T3 sequence (whole entry): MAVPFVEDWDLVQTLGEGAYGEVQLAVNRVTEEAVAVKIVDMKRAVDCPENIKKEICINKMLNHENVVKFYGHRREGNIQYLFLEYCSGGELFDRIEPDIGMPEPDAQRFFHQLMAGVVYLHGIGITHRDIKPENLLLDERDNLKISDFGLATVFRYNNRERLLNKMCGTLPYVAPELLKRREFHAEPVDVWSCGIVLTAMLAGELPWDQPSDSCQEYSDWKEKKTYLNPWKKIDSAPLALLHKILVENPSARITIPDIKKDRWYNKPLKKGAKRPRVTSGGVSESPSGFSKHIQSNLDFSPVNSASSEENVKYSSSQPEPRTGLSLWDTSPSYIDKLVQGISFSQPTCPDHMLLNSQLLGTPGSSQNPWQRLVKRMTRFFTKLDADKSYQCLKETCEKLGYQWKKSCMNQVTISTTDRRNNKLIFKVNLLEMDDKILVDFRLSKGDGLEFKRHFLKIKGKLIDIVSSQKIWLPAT

[12] = molecular target: Serine/threonine-protein kinase SIK3 (Homo sapiens) (UniProt Q9Y2K2); test: Selectivity interaction (KinomeScan (DiscoverX)) EUB0000045b SIK3
Sequence of Serine/threonine-protein kinase SIK3 (Homo sapiens) (Q9Y2K2 whole entry, looked up): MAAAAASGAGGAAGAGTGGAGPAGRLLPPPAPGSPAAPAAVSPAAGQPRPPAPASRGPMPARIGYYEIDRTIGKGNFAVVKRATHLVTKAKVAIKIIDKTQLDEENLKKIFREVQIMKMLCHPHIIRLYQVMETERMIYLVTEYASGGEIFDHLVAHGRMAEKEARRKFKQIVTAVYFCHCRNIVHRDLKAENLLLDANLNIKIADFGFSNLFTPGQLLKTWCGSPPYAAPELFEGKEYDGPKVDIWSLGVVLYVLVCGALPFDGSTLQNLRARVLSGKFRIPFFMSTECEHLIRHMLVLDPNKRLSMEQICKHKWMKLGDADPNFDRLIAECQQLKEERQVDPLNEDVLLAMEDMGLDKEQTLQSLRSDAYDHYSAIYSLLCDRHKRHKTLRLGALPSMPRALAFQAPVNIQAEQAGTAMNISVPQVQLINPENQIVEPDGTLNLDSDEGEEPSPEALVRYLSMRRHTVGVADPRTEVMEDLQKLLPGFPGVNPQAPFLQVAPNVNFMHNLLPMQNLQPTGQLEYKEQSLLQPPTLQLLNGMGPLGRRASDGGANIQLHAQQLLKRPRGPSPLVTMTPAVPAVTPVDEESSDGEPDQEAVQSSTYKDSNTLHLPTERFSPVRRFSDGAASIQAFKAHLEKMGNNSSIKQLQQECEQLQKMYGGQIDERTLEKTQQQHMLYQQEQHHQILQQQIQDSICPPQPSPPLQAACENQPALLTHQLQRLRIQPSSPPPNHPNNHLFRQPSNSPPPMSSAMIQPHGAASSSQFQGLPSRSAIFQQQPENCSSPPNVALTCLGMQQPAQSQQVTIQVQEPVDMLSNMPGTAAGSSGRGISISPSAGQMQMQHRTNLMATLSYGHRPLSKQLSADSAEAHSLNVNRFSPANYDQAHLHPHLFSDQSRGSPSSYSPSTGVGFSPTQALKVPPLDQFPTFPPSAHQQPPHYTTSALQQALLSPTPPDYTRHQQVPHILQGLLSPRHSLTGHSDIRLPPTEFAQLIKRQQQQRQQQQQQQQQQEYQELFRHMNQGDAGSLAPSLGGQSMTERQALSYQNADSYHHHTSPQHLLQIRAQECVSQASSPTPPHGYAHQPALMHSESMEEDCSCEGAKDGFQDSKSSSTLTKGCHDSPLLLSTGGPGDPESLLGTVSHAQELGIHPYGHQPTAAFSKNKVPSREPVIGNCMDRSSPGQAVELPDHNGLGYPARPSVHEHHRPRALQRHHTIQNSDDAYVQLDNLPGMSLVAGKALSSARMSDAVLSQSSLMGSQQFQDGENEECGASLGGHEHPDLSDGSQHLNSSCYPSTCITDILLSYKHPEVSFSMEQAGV

[13] = molecular target: T4, Dual specificity mitogen-activated protein kinase kinase 3 (Homo sapiens) (UniProt P46734); test: Selectivity interaction (KinomeScan (DiscoverX)) EUB0000655a MAP2K3; conditions: at 10 µM
T4 sequence (whole entry): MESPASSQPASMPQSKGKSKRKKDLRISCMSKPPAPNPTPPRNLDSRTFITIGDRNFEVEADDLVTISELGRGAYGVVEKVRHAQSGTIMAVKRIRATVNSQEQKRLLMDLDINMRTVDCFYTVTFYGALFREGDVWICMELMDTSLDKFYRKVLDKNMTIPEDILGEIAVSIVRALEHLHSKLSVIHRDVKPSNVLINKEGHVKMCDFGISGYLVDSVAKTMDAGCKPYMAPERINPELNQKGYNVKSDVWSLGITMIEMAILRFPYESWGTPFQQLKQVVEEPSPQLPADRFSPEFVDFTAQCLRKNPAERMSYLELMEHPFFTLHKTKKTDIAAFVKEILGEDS

[14] = molecular target: Tyrosine-protein kinase FRK (Homo sapiens) (UniProt P42685); test: Selectivity interaction (SelectScreen profiling (Invitrogen)) EUB0000607a FRK; conditions: at 2 µM
Sequence of Tyrosine-protein kinase FRK (Homo sapiens) (P42685 whole entry): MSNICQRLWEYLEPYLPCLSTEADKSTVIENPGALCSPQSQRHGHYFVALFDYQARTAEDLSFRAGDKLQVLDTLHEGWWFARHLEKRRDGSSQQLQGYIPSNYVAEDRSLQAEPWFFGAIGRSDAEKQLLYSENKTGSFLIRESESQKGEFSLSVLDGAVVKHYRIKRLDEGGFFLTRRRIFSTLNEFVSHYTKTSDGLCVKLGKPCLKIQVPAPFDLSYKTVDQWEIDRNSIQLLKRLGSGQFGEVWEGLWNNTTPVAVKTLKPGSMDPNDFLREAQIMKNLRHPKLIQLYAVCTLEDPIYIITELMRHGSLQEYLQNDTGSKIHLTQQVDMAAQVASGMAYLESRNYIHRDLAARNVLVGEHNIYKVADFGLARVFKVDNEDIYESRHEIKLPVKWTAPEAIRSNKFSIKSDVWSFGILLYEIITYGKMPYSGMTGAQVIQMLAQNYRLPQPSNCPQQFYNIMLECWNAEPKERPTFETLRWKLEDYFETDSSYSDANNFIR

Sequence of Serine/threonine-protein kinase MARK2 (Homo sapiens) (Q7KZI7 whole entry): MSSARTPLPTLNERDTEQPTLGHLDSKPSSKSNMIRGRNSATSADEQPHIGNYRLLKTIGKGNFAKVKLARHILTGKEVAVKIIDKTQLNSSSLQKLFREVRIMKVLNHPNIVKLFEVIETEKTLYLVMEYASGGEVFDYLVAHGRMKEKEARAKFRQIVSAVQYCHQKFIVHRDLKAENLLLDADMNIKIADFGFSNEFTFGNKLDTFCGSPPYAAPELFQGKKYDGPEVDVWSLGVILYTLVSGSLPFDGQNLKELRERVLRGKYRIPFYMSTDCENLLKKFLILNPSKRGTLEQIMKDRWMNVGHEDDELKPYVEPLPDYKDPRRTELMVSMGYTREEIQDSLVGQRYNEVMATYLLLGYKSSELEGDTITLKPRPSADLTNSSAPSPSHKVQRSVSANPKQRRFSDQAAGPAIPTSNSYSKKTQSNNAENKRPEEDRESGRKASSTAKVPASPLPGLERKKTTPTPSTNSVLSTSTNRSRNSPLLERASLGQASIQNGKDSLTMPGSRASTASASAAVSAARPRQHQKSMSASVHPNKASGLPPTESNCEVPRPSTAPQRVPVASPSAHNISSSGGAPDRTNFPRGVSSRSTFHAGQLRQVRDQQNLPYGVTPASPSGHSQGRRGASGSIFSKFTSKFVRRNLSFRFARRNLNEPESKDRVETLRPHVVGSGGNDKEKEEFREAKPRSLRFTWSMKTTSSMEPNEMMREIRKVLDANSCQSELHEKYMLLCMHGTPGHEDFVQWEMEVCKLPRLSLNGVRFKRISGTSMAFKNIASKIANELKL

Cc1cnc(Nc2ccc(F)cc2Cl)nc1-c1c[nH]c(C(=O)N[C@H](CO)c2cccc(Cl)c2)c1
% of inhibition [1]: 5%

COc1cc(Nc2nc(C)cc(-c3cnn4nc(OC)ccc34)n2)cc(C(F)(F)F)c1
% of control [2]: 100% | % of control [3]: 94%

CN(C)C/C=C/C(=O)Nc1ccc(C(=O)N2CCCC(Nc3ncc(Cl)c(-c4c[nH]c5ccccc45)n3)C2)cc1 (stereo not given)
% of control [4]: 64% | % of control [5]: 99%

CC[C@@H]1[C@H](F)C(=O)N[C@@H]1COc1nccc2cc(C(N)=O)c(OC)cc12 [ZIMLOVISERTIB]
% of inhibition [6]: -32.6%

CCN(CC)CCCCNc1ncc2cc(-c3cc(OC)cc(OC)c3)c(NC(=O)NC(C)(C)C)nc2n1
% of control [7]: 100%

COc1cc(N(C)c2ccnc3ccc(C(F)(F)F)cc23)cc(OC)c1OC
% binding [8]: 99%

Nc1cnc(N2CCc3cc(S(=O)(=O)Nc4c(F)cc(Cl)cc4F)cc(N4CCCC4=O)c32)nc1 [TP-020n]
% of control [9]: 100% | % of control [10]: 84%

Cc1ccc(-c2ccc3c(ccc4sc5c(c43)NC[C@@H](C)NC5=O)n2)cn1
% of inhibition [11]: 12%

C=CC(=O)Nc1cc(-n2c(=O)ccc3cnc4ccc(-c5ccc(NS(C)(=O)=O)cc5)cc4c32)ccc1C
% of control ([12]; at 1 µM): 100% | % of control ([12]; at 10 µM): 100%

CN(C)CCOc1ccc(-c2nc(-c3ccncc3)c(-c3ccc4c(c3)CC/C4=N\O)[nH]2)cc1
% of control [13]: 84%

CNC(=O)Nc1ccc(-c2nc(N3CC4CCC(C3)O4)c3cnn(C4CCC5(CC4)OCCO5)c3n2)cc1
% of inhibition [14]: 3%

From ChEMBL document CHEMBL5465560, “Selectivity Literature for EUbOPEN Chemogenomic Library” (2024)
